Assay results as given in ChEMBL document CHEMBL3994655, “Methylsulfonyl benzothiazoles (MSBT) derivatives: Search for new potential antimicrobial and anticancer agents” (2017).
Converted amounts (≈) assume the structure as drawn.

tested on: Staphylococcus aureus; experiment: Antibacterial activity against Staphylococcus aureus 209P assessed as zone of inhibition at 5 mg/ml by agar well diffusion method; format: functional; conditions: read-out: DIZ

| SMILES | zone of inhibition at 5000 µg/mL [mm] |
| --- | --- |
| CS(=O)(=O)c1nc2cc(OCc3ccc(Cl)cc3)ccc2s1 | 22 |
| CCOc1ccc2sc(S(C)(=O)=O)nc2c1S(=O)(=O)NC(C)(C)C | 13 |

tested on: Escherichia coli; experiment: Antibacterial activity against Escherichia coli ATCC 35421 assessed as zone of inhibition at 5 mg/ml by agar well diffusion method; format: functional; conditions: read-out: DIZ

| SMILES | zone of inhibition at 5000 µg/mL [mm] |
| --- | --- |
| CS(=O)(=O)c1nc2cc(OCc3ccc(Cl)cc3)ccc2s1 | 10 |
| CCOc1ccc2sc(S(C)(=O)=O)nc2c1S(=O)(=O)NC(C)(C)C | 10 |

tested on: Candida albicans; experiment: Antifungal activity against Candida albicans A01 assessed as zone of inhibition at 5 mg/ml by agar well diffusion method; format: functional; conditions: read-out: DIZ

| SMILES | zone of inhibition at 5000 µg/mL [mm] |
| --- | --- |
| CS(=O)(=O)c1nc2cc(OCc3ccc(Cl)cc3)ccc2s1 | 16 |
| CCOc1ccc2sc(S(C)(=O)=O)nc2c1S(=O)(=O)NC(C)(C)C | ≤ 7 |

tested on: Staphylococcus aureus; experiment: Antibacterial activity against Staphylococcus aureus 209P assessed as zone of inhibition at 1 mg/ml by agar well diffusion method; format: functional; conditions: read-out: DIZ

| SMILES | zone of inhibition at 1000 µg/mL [mm] |
| --- | --- |
| CS(=O)(=O)c1nc2cc(OCc3ccc(Cl)cc3)ccc2s1 | 13 |
| CCOc1ccc2sc(S(C)(=O)=O)nc2c1S(=O)(=O)NC(C)(C)C | ≤ 7 |

tested on: Escherichia coli; experiment: Antibacterial activity against Escherichia coli ATCC 35421 assessed as zone of inhibition at 1 mg/ml by agar well diffusion method; format: functional; conditions: read-out: DIZ

| SMILES | zone of inhibition at 1000 µg/mL [mm] |
| --- | --- |
| CS(=O)(=O)c1nc2cc(OCc3ccc(Cl)cc3)ccc2s1 | 9 |
| CCOc1ccc2sc(S(C)(=O)=O)nc2c1S(=O)(=O)NC(C)(C)C | 9 |

tested on: Candida albicans; experiment: Antifungal activity against Candida albicans A01 assessed as zone of inhibition at 1 mg/ml by agar well diffusion method; format: functional; conditions: read-out: DIZ

| SMILES | zone of inhibition at 1000 µg/mL [mm] |
| --- | --- |
| CS(=O)(=O)c1nc2cc(OCc3ccc(Cl)cc3)ccc2s1 | 9 |
| CCOc1ccc2sc(S(C)(=O)=O)nc2c1S(=O)(=O)NC(C)(C)C | ≤ 7 |

tested on: Staphylococcus aureus; experiment: Antibacterial activity against Staphylococcus aureus 209P after 24 to 48 hrs by macro-broth dilution method; format: functional; conditions: not given

| SMILES | MIC [µg/mL] |
| --- | --- |
| CS(=O)(=O)c1nc2cc(OCc3ccc(Cl)cc3)ccc2s1 | 100 (≈ 283 µM) |
| CCOc1ccc2sc(S(C)(=O)=O)nc2c1S(=O)(=O)NC(C)(C)C | 8 (≈ 20.4 µM) |

tested on: Staphylococcus aureus; experiment: Antibacterial activity against methicillin-resistant Staphylococcus aureus 3710 after 24 to 48 hrs by macro-broth dilution method; format: functional; conditions: not given

| SMILES | MIC [µg/mL] |
| --- | --- |
| CS(=O)(=O)c1nc2cc(OCc3ccc(Cl)cc3)ccc2s1 | 100 (≈ 283 µM) |
| CCOc1ccc2sc(S(C)(=O)=O)nc2c1S(=O)(=O)NC(C)(C)C | 10 (≈ 25.5 µM) |

tested on: Staphylococcus aureus; experiment: Antibacterial activity against methicillin-resistant Staphylococcus aureus ATCC 33591 after 24 to 48 hrs by macro-broth dilution method; format: functional; conditions: not given

| SMILES | MIC [µg/mL] |
| --- | --- |
| CS(=O)(=O)c1nc2cc(OCc3ccc(Cl)cc3)ccc2s1 | 100 (≈ 283 µM) |
| CCOc1ccc2sc(S(C)(=O)=O)nc2c1S(=O)(=O)NC(C)(C)C | 10 (≈ 25.5 µM) |

tested on: Staphylococcus epidermidis; experiment: Antibacterial activity against Staphylococcus epidermidis 209E after 24 to 48 hrs by macro-broth dilution method; format: functional; conditions: not given

| SMILES | MIC [µg/mL] |
| --- | --- |
| CS(=O)(=O)c1nc2cc(OCc3ccc(Cl)cc3)ccc2s1 | 100 (≈ 283 µM) |
| CCOc1ccc2sc(S(C)(=O)=O)nc2c1S(=O)(=O)NC(C)(C)C | 10 (≈ 25.5 µM) |

tested on: Escherichia coli; experiment: Antibacterial activity against Escherichia coli ATCC 35421 after 24 to 48 hrs by macro-broth dilution method; format: functional; conditions: not given

| SMILES | MIC [µg/mL] |
| --- | --- |
| CS(=O)(=O)c1nc2cc(OCc3ccc(Cl)cc3)ccc2s1 | 20 (≈ 56.5 µM) |
| CCOc1ccc2sc(S(C)(=O)=O)nc2c1S(=O)(=O)NC(C)(C)C | 20 (≈ 51 µM) |

tested on: Escherichia coli; experiment: Antibacterial activity against Escherichia coli ATCC 20732 after 24 to 48 hrs by macro-broth dilution method; format: functional; conditions: not given

| SMILES | MIC [µg/mL] |
| --- | --- |
| CS(=O)(=O)c1nc2cc(OCc3ccc(Cl)cc3)ccc2s1 | 20 (≈ 56.5 µM) |
| CCOc1ccc2sc(S(C)(=O)=O)nc2c1S(=O)(=O)NC(C)(C)C | 20 (≈ 51 µM) |

tested on: Pseudomonas aeruginosa; experiment: Antibacterial activity against Pseudomonas aeruginosa M5 after 24 to 48 hrs by macro-broth dilution method; format: functional; conditions: not given

| SMILES | MIC [µg/mL] |
| --- | --- |
| CS(=O)(=O)c1nc2cc(OCc3ccc(Cl)cc3)ccc2s1 | 50 (≈ 141 µM) |
| CCOc1ccc2sc(S(C)(=O)=O)nc2c1S(=O)(=O)NC(C)(C)C | 50 (≈ 127 µM) |

tested on: Candida albicans; experiment: Antifungal activity against Candida albicans A01 after 24 to 48 hrs by macro-broth dilution method; format: functional; conditions: not given

| SMILES | MIC [µg/mL] |
| --- | --- |
| CS(=O)(=O)c1nc2cc(OCc3ccc(Cl)cc3)ccc2s1 | 20 (≈ 56.5 µM) |

tested on: Candida albicans; experiment: Antifungal activity against Candida albicans ATCC 10231 after 24 to 48 hrs by macro-broth dilution method; format: functional; conditions: not given

| SMILES | MIC [µg/mL] |
| --- | --- |
| CS(=O)(=O)c1nc2cc(OCc3ccc(Cl)cc3)ccc2s1 | 20 (≈ 56.5 µM) |

tested on: Pichia kudriavzevii; experiment: Antifungal activity against Candida krusei G03 after 24 to 48 hrs by macro-broth dilution method; format: functional; conditions: not given

| SMILES | MIC [µg/mL] |
| --- | --- |
| CS(=O)(=O)c1nc2cc(OCc3ccc(Cl)cc3)ccc2s1 | 20 (≈ 56.5 µM) |

tested on: Pichia kudriavzevii; experiment: Antifungal activity against Candida krusei G06 after 24 to 48 hrs by macro-broth dilution method; format: functional; conditions: not given

| SMILES | MIC [µg/mL] |
| --- | --- |
| CS(=O)(=O)c1nc2cc(OCc3ccc(Cl)cc3)ccc2s1 | 20 (≈ 56.5 µM) |

tested on: Nakaseomyces glabratus; experiment: Antifungal activity against Candida glabrata H04 after 24 to 48 hrs by macro-broth dilution method; format: functional; conditions: not given

| SMILES | MIC [µg/mL] |
| --- | --- |
| CS(=O)(=O)c1nc2cc(OCc3ccc(Cl)cc3)ccc2s1 | 50 (≈ 141 µM) |

tested on: Nakaseomyces glabratus; experiment: Antifungal activity against Candida glabrata H05 after 24 to 48 hrs by macro-broth dilution method; format: functional; conditions: not given

| SMILES | MIC [µg/mL] |
| --- | --- |
| CS(=O)(=O)c1nc2cc(OCc3ccc(Cl)cc3)ccc2s1 | 50 (≈ 141 µM) |

tested on: HeLa; experiment: Cytotoxicity against human HeLa cells assessed as cell growth at 10^-7 M after 48 hrs by SRB assay relative to control; format: functional; conditions: read-out: Activity

| SMILES | growth at 0.1 µM [%] |
| --- | --- |
| CS(=O)(=O)c1nc2cc(OCc3ccc(Cl)cc3)ccc2s1 | 100 |
| CCOc1ccc2sc(S(C)(=O)=O)nc2c1S(=O)(=O)NC(C)(C)C | 97.9 |

tested on: HeLa; experiment: Cytotoxicity against human HeLa cells assessed as cell growth at 10^-6 M after 48 hrs by SRB assay relative to control; format: functional; conditions: read-out: Activity

| SMILES | growth at 1 µM [%] |
| --- | --- |
| CS(=O)(=O)c1nc2cc(OCc3ccc(Cl)cc3)ccc2s1 | 89.9 |
| CCOc1ccc2sc(S(C)(=O)=O)nc2c1S(=O)(=O)NC(C)(C)C | 42.1 |

tested on: HeLa; experiment: Cytotoxicity against human HeLa cells assessed as cell growth at 10^-5 M after 48 hrs by SRB assay relative to control; format: functional; conditions: read-out: Activity

| SMILES | growth at 10 µM [%] |
| --- | --- |
| CS(=O)(=O)c1nc2cc(OCc3ccc(Cl)cc3)ccc2s1 | 60.8 |
| CCOc1ccc2sc(S(C)(=O)=O)nc2c1S(=O)(=O)NC(C)(C)C | -6.7 |

tested on: HeLa; experiment: Cytotoxicity against human HeLa cells assessed as cell growth at 10^-4 M after 48 hrs by SRB assay relative to control; format: functional; conditions: read-out: Activity

| SMILES | growth at 100 µM [%] |
| --- | --- |
| CS(=O)(=O)c1nc2cc(OCc3ccc(Cl)cc3)ccc2s1 | -50.5 |
| CCOc1ccc2sc(S(C)(=O)=O)nc2c1S(=O)(=O)NC(C)(C)C | -76.3 |

tested on: HeLa; experiment: Growth inhibition of human HeLa cells after 48 hrs by SRB assay; format: functional; conditions: not given

| SMILES | GI50 [µM] | LC50 [µM] | TGI [µM] | growth inhibition (GI) |
| --- | --- | --- | --- | --- |
| CS(=O)(=O)c1nc2cc(OCc3ccc(Cl)cc3)ccc2s1 | 33 | > 100 | 73.3 | Dose-dependent effect |
| CCOc1ccc2sc(S(C)(=O)=O)nc2c1S(=O)(=O)NC(C)(C)C | 0.6 | 76.6 | 38.6 | Dose-dependent effect |

tested on: HeLa; experiment: Cytotoxicity against human HeLa cells assessed as reduction in cell viability after 48 hrs by SRB assay; format: functional, cell-based; conditions: not given

| SMILES | Activity |
| --- | --- |
| CS(=O)(=O)c1nc2cc(OCc3ccc(Cl)cc3)ccc2s1 | Dose-dependent effect |
| CCOc1ccc2sc(S(C)(=O)=O)nc2c1S(=O)(=O)NC(C)(C)C | Dose-dependent effect |
